Measurements taken from the kinase profiling compilation of Christmann-Franck et al. (2016).

Assays:
Assay in all cases: radiometric filter-binding kinase assay
[1] = target: NUAK1 (human) (UniProt O60285)
[2] = target: MINK1 (human) (UniProt Q8N4C8); settings: compound 10.0 µM
[3] = target: PIM1 (human) (UniProt P11309)
[4] = tested on: PAK2 (human), Q13177 [T402E]; settings: compound 1.0 µM
[5] = target: RPS6KA5 KD1 KD2 (human) (UniProt O75582); settings: compound 10.0 µM
[6] = target: CSK (human) (UniProt P41240); settings: compound 1.0 µM
[7] = target: GSK3B (human) (UniProt P49841); settings: compound 1.0 µM
[8] = target: TSSK1B (human) (UniProt Q9BXA7); settings: compound 1.0 µM
[9] = target: CAMKK2 (human) (UniProt Q96RR4); settings: compound 1.0 µM
[10] = target: PTK6 (human) (UniProt Q13882)
[11] = target: SRC (human) (UniProt P12931); settings: compound 10.0 µM
[12] = target: PKN2 (human) (UniProt Q16513); settings: compound 10.0 µM
[13] = target: SIK2 (human) (UniProt Q9H0K1); settings: compound 10.0 µM
[14] = target: EPHB3 (human) (UniProt P54753)
[15] = target: SYK (human) (UniProt P43405)
[16] = target: WNK1 (human) (UniProt Q9H4A3)
[17] = target: ZAP70 (human) (UniProt P43403); settings: compound 1.0 µM
[18] = target: EPHB4 (human) (UniProt P54760)
[19] = target: MAPK14 (human) (UniProt Q16539)
[20] = target: STK33 (human) (UniProt Q9BYT3)
[21] = target: RPS6KA1 KD1 KD2 (human) (UniProt Q15418); settings: compound 1.0 µM
[22] = tested on: PRKAA1 or PRKAA2 (rat); settings: compound 1.0 µM; accession and sequence are those of the human protein
[23] = target: MAPK1 (human) (UniProt P28482); settings: compound 10.0 µM
[24] = target: EPHB2 (human) (UniProt P29323); settings: compound 1.0 µM

PIM1 (human), sequence (P11309 whole entry, looked up): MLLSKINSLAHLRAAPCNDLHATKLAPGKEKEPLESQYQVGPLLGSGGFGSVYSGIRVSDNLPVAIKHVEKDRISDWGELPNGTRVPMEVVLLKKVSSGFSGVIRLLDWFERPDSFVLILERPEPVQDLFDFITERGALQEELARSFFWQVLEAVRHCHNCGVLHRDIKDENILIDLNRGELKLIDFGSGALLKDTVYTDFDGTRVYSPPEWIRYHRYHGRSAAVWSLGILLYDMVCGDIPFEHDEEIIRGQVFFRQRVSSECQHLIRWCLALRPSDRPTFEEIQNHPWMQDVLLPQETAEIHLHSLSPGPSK
STK33 (human), sequence (Q9BYT3 whole entry, looked up): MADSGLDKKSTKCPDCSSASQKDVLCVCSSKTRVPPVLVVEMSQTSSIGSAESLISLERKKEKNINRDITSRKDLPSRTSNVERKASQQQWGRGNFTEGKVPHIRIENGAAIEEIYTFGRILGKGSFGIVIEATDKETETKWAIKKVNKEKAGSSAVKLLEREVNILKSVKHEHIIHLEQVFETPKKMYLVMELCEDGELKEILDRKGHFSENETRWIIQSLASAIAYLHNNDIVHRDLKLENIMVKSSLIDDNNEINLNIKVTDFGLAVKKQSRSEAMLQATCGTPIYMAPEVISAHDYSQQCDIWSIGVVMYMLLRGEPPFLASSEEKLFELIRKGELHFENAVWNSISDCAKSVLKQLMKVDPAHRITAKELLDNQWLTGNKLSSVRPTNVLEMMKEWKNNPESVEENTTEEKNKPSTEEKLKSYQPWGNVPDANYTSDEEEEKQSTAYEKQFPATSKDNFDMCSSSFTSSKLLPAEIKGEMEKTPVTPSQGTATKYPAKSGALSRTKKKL
WNK1 (human), sequence (Q9H4A3 whole entry, looked up): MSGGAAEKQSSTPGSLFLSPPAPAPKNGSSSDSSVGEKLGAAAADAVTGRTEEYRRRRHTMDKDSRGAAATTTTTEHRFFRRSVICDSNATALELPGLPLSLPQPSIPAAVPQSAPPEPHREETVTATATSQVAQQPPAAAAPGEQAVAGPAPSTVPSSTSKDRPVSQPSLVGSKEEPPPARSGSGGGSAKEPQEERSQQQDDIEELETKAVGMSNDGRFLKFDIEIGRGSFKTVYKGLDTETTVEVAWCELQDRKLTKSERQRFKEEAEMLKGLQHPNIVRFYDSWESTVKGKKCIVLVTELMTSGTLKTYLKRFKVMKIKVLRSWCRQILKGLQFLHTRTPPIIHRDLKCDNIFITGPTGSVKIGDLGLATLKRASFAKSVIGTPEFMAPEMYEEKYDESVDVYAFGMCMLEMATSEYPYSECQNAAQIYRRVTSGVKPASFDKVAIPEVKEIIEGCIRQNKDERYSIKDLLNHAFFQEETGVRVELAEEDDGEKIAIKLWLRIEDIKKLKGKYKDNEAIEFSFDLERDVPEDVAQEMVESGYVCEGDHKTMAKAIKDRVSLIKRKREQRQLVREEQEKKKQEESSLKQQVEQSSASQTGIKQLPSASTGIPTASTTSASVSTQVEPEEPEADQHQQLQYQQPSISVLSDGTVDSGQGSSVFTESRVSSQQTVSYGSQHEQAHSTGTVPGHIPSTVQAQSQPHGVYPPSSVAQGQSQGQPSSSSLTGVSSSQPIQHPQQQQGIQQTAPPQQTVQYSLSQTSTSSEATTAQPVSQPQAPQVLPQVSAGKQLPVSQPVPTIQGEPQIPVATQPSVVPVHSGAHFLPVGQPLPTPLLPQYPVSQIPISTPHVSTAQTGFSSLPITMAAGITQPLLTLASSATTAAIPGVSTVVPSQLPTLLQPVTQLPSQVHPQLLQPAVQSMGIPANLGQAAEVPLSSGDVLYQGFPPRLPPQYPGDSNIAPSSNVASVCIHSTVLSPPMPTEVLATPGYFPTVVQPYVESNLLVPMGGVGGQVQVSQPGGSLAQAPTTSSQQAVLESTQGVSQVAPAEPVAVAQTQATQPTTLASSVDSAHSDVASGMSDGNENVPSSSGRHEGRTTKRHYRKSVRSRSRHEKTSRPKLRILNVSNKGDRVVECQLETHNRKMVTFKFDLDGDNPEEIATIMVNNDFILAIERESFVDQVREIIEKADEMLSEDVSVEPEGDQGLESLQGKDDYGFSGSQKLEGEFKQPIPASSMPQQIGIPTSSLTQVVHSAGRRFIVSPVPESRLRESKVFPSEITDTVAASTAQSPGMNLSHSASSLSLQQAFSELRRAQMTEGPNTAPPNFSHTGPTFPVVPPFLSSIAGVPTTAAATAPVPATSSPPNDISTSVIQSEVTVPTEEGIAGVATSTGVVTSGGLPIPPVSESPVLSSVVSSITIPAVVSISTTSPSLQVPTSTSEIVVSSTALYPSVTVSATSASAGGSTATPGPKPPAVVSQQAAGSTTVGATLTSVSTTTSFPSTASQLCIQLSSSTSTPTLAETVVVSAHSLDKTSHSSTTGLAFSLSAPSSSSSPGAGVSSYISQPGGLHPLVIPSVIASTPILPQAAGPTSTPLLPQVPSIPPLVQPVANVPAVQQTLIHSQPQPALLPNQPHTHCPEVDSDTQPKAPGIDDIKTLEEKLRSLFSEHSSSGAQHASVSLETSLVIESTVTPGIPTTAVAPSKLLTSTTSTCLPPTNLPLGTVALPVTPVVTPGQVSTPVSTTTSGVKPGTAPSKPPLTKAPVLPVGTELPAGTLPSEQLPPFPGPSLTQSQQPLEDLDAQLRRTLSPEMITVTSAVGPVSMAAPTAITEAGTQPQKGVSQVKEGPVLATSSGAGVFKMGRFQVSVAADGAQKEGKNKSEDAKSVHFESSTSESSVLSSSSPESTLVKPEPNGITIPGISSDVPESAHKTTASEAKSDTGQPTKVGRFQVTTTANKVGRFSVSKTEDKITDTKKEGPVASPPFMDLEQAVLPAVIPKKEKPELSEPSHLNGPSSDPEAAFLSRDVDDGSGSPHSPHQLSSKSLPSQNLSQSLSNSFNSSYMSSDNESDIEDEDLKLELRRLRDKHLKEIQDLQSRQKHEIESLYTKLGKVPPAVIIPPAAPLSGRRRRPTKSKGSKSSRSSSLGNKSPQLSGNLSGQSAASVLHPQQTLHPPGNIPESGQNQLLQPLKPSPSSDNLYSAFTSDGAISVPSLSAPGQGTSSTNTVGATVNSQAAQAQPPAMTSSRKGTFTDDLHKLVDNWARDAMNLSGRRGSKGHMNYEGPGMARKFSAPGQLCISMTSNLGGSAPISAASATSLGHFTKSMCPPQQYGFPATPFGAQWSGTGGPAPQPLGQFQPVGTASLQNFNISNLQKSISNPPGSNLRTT
MAPK14 (human), sequence (Q16539 whole entry, looked up): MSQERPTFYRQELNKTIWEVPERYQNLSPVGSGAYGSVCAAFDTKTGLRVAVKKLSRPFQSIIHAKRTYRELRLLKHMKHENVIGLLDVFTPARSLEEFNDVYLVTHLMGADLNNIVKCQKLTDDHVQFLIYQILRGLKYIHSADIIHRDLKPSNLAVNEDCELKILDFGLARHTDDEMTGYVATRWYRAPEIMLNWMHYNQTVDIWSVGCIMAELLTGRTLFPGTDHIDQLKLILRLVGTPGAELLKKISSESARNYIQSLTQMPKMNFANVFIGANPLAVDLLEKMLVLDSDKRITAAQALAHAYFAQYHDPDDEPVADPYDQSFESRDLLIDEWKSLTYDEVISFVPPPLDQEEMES
EPHB3 (human), sequence (P54753 whole entry, looked up): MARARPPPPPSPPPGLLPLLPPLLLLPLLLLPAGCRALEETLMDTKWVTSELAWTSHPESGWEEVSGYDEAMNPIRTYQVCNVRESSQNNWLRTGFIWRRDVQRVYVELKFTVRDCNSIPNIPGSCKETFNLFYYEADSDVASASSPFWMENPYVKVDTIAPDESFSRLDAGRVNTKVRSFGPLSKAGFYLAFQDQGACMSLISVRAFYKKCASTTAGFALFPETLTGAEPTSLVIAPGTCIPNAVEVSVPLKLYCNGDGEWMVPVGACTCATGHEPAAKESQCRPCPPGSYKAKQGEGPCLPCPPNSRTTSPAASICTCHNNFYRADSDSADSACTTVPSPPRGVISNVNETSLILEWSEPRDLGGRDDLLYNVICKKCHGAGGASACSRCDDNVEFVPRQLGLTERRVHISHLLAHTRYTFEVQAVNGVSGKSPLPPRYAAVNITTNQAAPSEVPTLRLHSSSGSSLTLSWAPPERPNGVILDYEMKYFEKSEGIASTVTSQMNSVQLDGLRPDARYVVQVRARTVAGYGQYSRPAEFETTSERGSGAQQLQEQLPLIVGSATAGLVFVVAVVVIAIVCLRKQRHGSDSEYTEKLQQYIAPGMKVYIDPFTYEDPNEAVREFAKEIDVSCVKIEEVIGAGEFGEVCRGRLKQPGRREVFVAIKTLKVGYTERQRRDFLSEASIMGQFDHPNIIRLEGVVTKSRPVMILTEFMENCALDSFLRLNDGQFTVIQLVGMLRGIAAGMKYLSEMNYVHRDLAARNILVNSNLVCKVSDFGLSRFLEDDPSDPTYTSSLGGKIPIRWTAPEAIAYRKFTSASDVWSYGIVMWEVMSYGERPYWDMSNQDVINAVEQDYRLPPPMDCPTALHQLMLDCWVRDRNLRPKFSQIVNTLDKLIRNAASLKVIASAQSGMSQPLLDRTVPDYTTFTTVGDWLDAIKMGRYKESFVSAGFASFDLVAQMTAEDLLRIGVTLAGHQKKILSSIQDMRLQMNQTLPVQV
PTK6 (human), sequence (Q13882 whole entry, looked up): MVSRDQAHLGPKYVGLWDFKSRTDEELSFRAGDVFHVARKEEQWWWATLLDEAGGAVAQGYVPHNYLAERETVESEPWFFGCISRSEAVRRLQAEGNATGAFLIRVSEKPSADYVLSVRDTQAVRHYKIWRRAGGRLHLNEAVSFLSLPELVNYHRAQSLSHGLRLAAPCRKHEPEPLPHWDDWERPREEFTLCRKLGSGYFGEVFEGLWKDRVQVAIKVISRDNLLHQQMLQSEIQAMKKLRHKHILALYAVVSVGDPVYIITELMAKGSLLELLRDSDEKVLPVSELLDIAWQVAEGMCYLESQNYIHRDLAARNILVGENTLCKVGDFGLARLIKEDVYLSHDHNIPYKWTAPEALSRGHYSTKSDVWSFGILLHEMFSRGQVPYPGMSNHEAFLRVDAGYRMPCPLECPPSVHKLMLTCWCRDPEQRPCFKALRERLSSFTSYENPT

Work on `O=C(Nc1cccnc1)c1cc(-c2ccnc(F)c2)ccc1OCc1ccccc1` yielded a residual activity ([1]; compound 1.0 µM) of 31%, a residual activity ([1]; compound 10.0 µM) of 58% and a residual activity [2] of 76%. For the same molecule, the residual activity ([3]; compound 1.0 µM) was 102%, the residual activity ([3]; compound 10.0 µM) was 109% and the residual activity [4] was 116%. For the same molecule, the residual activity [5] was 120%, the residual activity [6] was 104% and the residual activity [7] was 119%. The residual activity [8] was 103%, the residual activity [9] was 71% and the residual activity ([10]; compound 1.0 µM) was 103%. It also gave a residual activity ([10]; compound 10.0 µM) of 101%, a residual activity [11] of 160% and a residual activity [12] of 79%. It also gave a residual activity [13] of 111%, a residual activity ([14]; compound 1.0 µM) of 121% and a residual activity ([14]; compound 10.0 µM) of 113%. It also gave a residual activity ([15]; compound 1.0 µM) of 115%, a residual activity ([15]; compound 10.0 µM) of 125% and a residual activity ([16]; compound 1.0 µM) of 104%. The residual activity ([16]; compound 10.0 µM) was 106%, the residual activity [17] was 103% and the residual activity ([18]; compound 1.0 µM) was 118%. It also gave a residual activity ([18]; compound 10.0 µM) of 108%, a residual activity ([19]; compound 1.0 µM) of 101% and a residual activity ([19]; compound 10.0 µM) of 102%. It also gave a residual activity ([20]; compound 1.0 µM) of 64%, a residual activity ([20]; compound 10.0 µM) of 66% and a residual activity [21] of 69%. The residual activity [22] was 90%, the residual activity [23] was 115% and the residual activity [24] was 123%.
